Data taken from publication PMC7843452, “Novel Hybrids of Podophyllotoxin and Coumarin Inhibit the Growth and Migration of Human Oral Squamous Carcinoma Cells” (Frontiers in Chemistry, 2021).
Read-outs that look alike come from different tables or passages of the source. Each block holds one molecule with its values, some of them ahead of it.

Legend:
[1] = test system: human oral squamous carcinoma HSC-2 cells; experiment: CCK-8 antiproliferative assay, HSC-2; assay type: cell-based; conditions: read-out: IC50 (μM) HSC-2
Description: (§1) The in vitro antiproliferative activities of target compounds were investigated against human oral squamous carcinoma HSC-2, SCC-9, and A253 cells and human renal tubular epithelial HK-2 cells by Cell Counting Kit-8 (CCK-8) assay. The HSC-2, SCC-9, and A253 cell lines were purchased from Cobioer Biosciences (Nanjing, China), and HK-2 cell line was from KeyGen Biotech (Nanjing, China). The cells were placed into 96-well plates. After 24 h, cells were treated with 0.1% DMSO or different doses of test compounds for 72 h at 37°C in a CO2 incubator. Subsequently, 100 μl of CCK-8 test solution was added and incubated for 3 h at 37°C. The absorbance value of each well was measured at 450 nm.

[2] = test system: human oral squamous carcinoma SCC-9 cells; experiment: CCK-8 antiproliferative assay, SCC-9; assay type: cell-based; conditions: read-out: IC50 (μM) SCC-9
Description: as §1

[3] = test system: human oral squamous carcinoma A253 cells; experiment: CCK-8 antiproliferative assay, A253; assay type: cell-based; conditions: read-out: IC50 (μM) A253
Description: as §1

[4] = test system: human renal tubular epithelial HK-2 cells; experiment: CCK-8 assay on normal cells, HK-2; assay type: cell-based; conditions: read-out: IC50 (μM) HK-2
Description: as §1

HSC-2 cells [5] = experiment: Cell cycle analysis by flow cytometry (PI); assay type: cell-based, human; conditions: 48 h
Description: HSC-2 cells were incubated in six-well plates and then treated with 0.1% DMSO or different concentrations of test compounds for 48 h. Subsequently, cells were fixed with 70% ethanol at 4°C overnight. After that, cells were washed with phosphate-buffered saline (PBS) and stained with 100 μl of RNase A at 37°C for 30 min and then 400 μl of propidium iodide (PI) at 4°C for 30 min. The cell cycle was measured by flow cytometry.

HSC-2 cells [6] = experiment: Cell apoptosis analysis by flow cytometry (Annexin V/7-AAD); assay type: cell-based, human; conditions: HSC-2, 0.1, 0.25 and 0.5 μM, 48 h, dose-dependent
Description: HSC-2 cells were seeded into six-well plates, grown overnight at 37°C in a 5% CO2 incubator, and then treated with 0.1% DMSO or different concentrations of test compounds for 48 h. Cells were washed twice with ice-cold PBS and then suspended with 500 μl of binding buffer. Subsequently, 5 μl of Annexin V-APC and 5 μl of 7-AAD were added, and the cells were incubated at room temperature for 15 min in the dark. The samples were analyzed by flow cytometry.

HSC-2 cells [7] = experiment: Mitochondrial membrane potential assay (JC-1); assay type: cell-based, human; conditions: HSC-2, 0.1, 0.25 and 0.5 μM, 48 h, JC-1, dose-dependent
Description: HSC-2 cells were seeded on six-well plates and grown overnight at 37°C in a 5% CO2 incubator. Then, cells were incubated with 0.1% DMSO or different concentrations of compounds at 37°C for 48 h. Subsequently, cells were trypsinized, washed with PBS, and resuspended in incubation buffer containing JC-1 at 37°C for 20 min in a 5% CO2 incubator. The dyeing cells were rinsed, suspended in incubation PBS, and then analyzed d by flow cytometry.

HSC-2 cells [8] = experiment: AO/EB double staining assay; assay type: cell-based, human; conditions: HSC-2, 0.1, 0.25 and 0.5 μM, 48 h
Description: HSC-2 cells were seeded on six-well plates and grown overnight at 37°C in a 5% CO2 incubator. Then, cells were incubated with 0.1% DMSO or different concentrations of compounds at 37°C for 48 h. Subsequently, cells were trypsinized, collected, washed with PBS, and stained with 100 μl of AO/EB dye at room temperature for 15 min in the dark. The dyeing cells were rinsed, suspended in incubation PBS, and then observed under a fluorescence microscope.

[9] = test system: microtubule network in HSC-2 cells; experiment: Immunofluorescence assay of microtubule network; assay type: cell-based, human; conditions: HSC-2, 0.1, 0.25 and 0.5 μM, 48 h, dose-dependent
Description: HSC-2 cells were seeded on 24-well plates, grown overnight at 37°C in a 5% CO2 incubator, and then incubated with 0.1% DMSO or different concentrations of compounds at 37°C for 48 h. Cells were washed with PBS, fixed with 4% paraformaldehyde, and then further permeabilized with 0.5% Triton X-100 for 10 min. Subsequently, cells were blocked for 20 min by 50–100 μl of goat serum albumin at room temperature and then treated with α-tubulin primary antibody at 4°C for 2 h. Then, cells were treated with the Alexa Fluor 488-labeled goat anti-rabbit fluorescence secondary antibody at 37°C for 1 h in the dark, and the cell nuclei were labeled by DAPI at room temperature for 5 min. Finally, cells were visualized under a confocal microscope.

HSC-2 cells [10] = experiment: Wound healing migration assay; assay type: cell-based, human; conditions: HSC-2, 0.1, 0.25 and 0.5 μM, 48 h, dose-dependent
Description: HSC-2 cells were seeded on six-well plates and grown to 80% at 37°C in a 5% CO2 incubator. Then, cells were scratched using the tip of the pipette, then washed with PBS to remove the non-adherent cells, and incubated with 0.1% DMSO or different concentrations of compounds at 37°C for 48 h. The images of cell migration were photographed with an inverted fluorescent microscope at 0 and 48 h.

CDK2 = experiment: Western blot, CDK2; assay type: cell-based, human; conditions: HSC-2, 0.1, 0.25 and 0.5 μM, 48 h
Description: (§2) After being cultured, HSC-2 cells were treated with 0.1% DMSO or different concentrations of compounds at 37°C for 48 h. Then, cells were collected, washed twice with PBS, and lysed with cold lysis buffer, followed by centrifugation. Then, the total proteins were collected, and protein concentration was quantified using Bradford assay. Equal amounts of proteins were electrophoresed by 10% sodium dodecyl sulfate–polyacrylamide gel electrophoresis (SDS-PAGE) and transferred onto nitrocellulose (NC) membrane. Membranes were blocked with 5% non-fat milk for 2 h, then washed, and incubated with primary antibodies overnight at 4°C. After being washed, the membranes were treated with secondary antibodies at room temperature for 2 h and then visualized using an ECL Western blotting kit.

cyclin A2 = experiment: Western blot, cyclin A2; assay type: cell-based, human; conditions: HSC-2, 0.1, 0.25 and 0.5 μM, 48 h
Description: as §2

cleaved caspase3 = experiment: Western blot, cleaved caspase3; assay type: cell-based, human; conditions: HSC-2, 0.1, 0.25 and 0.5 μM, 48 h, concentration-dependent
Description: as §2

cleaved PARP = experiment: Western blot, cleaved PARP; assay type: cell-based, human; conditions: HSC-2, 0.1, 0.25 and 0.5 μM, 48 h, concentration-dependent
Description: as §2

E-cadherin = experiment: Western blot, E-cadherin; assay type: cell-based, human; conditions: HSC-2, 0.1, 0.25 and 0.5 μM, 48 h
Description: as §2

MMP-2 = experiment: Western blot, MMP-2; assay type: cell-based, human; conditions: HSC-2, 0.1, 0.25 and 0.5 μM, 48 h
Description: as §2

Beclin1 = experiment: Western blot, Beclin1; assay type: cell-based, human; conditions: HSC-2, 0.1, 0.25 and 0.5 μM, 48 h
Description: as §2

LC3 = experiment: Western blot, LC3; assay type: cell-based, human; conditions: HSC-2, 0.1, 0.25 and 0.5 μM, 48 h
Description: as §2

p-AMPK = experiment: Western blot, p-AMPK; assay type: cell-based, human; conditions: HSC-2, 0.1, 0.25 and 0.5 μM, 48 h, dose-dependent
Description: as §2

p-AKT = experiment: Western blot, p-AKT; assay type: cell-based, human; conditions: HSC-2, 0.1, 0.25 and 0.5 μM, 48 h
Description: as §2

p-mTOR = experiment: Western blot, p-mTOR; assay type: cell-based, human; conditions: HSC-2, 0.1, 0.25 and 0.5 μM, 48 h
Description: as §2

[11] = test system: human non-small-cell lung carcinoma A549 cells; parameters: method as in Yang et al., 2019; conditions: ref Yang et al., 2019; read-out: IC50 against A549 cells; cited from earlier work
MGC-803 cells = test system: MGC-803 cells; parameters: method as in Huang et al., 2017; conditions: in vitro; ref Huang et al., 2017; cited from earlier work
NCI-H460 cells = test system: NCI-H460 cells; parameters: method as in Huang et al., 2017; conditions: in vitro; ref Huang et al., 2017; cited from earlier work

SMILES: N.N.[Cl][Pt][Cl] [Cisplatin, cisplatin]
- IC50 ([1]; CCK-8, 72 h, mean ± SD): 2.03 ± 0.308 µM
- IC50 ([2]; CCK-8, 72 h, mean ± SD): 2.35 ± 0.384 µM
- IC50 ([3]; CCK-8, 72 h, mean ± SD): 1.62 ± 0.157 µM
- IC50 ([4]; normal cells, CCK-8, 72 h, mean ± SD): 5.36 ± 0.33 µM

- IC50 ([1]; Homo sapiens, HSC-2, CCK-8, 72 h, mean ± SD): 1.25 ± 0.467 µM
- IC50 ([2]; Homo sapiens, SCC-9, CCK-8, 72 h, mean ± SD): 1.15 ± 0.308 µM
- IC50 ([3]; Homo sapiens, A253, CCK-8, 72 h, mean ± SD): 0.95 ± 0.387 µM
SMILES: COc1cc([C@@H]2c3cc4c(cc3[C@@H](O[C@@H]3O[C@@H]5CO[C@@H](C)O[C@H]5[C@H](O)[C@H]3O)[C@H]3COC(=O)[C@H]23)OCO4)cc(OC)c1O [Etoposide, etoposide]
- IC50 ([4]; Homo sapiens, HK-2, normal cells, CCK-8, 72 h, mean ± SD): 3.04 ± 1.37 µM

SMILES: COc1cc([C@@H]2c3cc4c(cc3[C@H](OC(=O)COc3ccc5ccc(=O)oc5c3)[C@H]3COC(=O)[C@H]23)OCO4)cc(OC)c1OC [12b]
- IC50 ([1]; Homo sapiens, HSC-2, 72 h): 0.226 ± 0.021 µM
- IC50 ([2]; Homo sapiens, SCC-9, 72 h): 0.231 ± 0.05 µM
- IC50 ([3]; Homo sapiens, A253, 72 h): 0.25 ± 0.019 µM
- IC50 ([4]; Homo sapiens, HK-2, 72 h): 0.626 ± 0.043 µM
- Effect on cell cycle (HSC-2 cells [5]; HSC-2, 0.1 μM): significant S accumulation
- Effect on cell cycle (HSC-2 cells [5]; HSC-2, 0.25 and 0.5 μM): cell cycle arrest at both S and G2 phases
- Induction of apoptosis (HSC-2 cells [6]): obviously induced apoptosis
- Mitochondrial membrane potential (MMP) (HSC-2 cells [7]): significantly decreased
- Morphological change, AO/EB staining (HSC-2 cells [8]): chromatin condensation and shrinkage
- Effect on microtubule network organization [9]: disruption of microtubule network organizations
- Cell migration (HSC-2 cells [10]): inhibited HSC-2 cell migration
- Relative level of CDK2 (CDK2): suppressed in a concentration-dependent manner
- Relative level of cyclin A2 (cyclin A2): suppressed in a concentration-dependent manner
- Relative level of cleaved caspase3 (cleaved caspase3): upregulated
- Relative level of cleaved PARP (cleaved PARP): upregulated
- Expression of E-cadherin (E-cadherin): obviously enhanced
- Expression of MMP-2 (MMP-2): reduced
- Aggregation of Beclin1 (Beclin1): increasing
- Aggregation of LC3 (LC3): increasing
- Level of cleavage of LC3 (LC3-II) (LC3): upregulated
- p-AMPK expression (p-AMPK): upregulated
- Phosphorylation of AKT (p-AKT): downregulated
- mTOR phosphorylation (p-mTOR): inhibition

SMILES: COc1ccc(-c2coc3cc(OCC(=O)OC4c5cc6c(cc5C(c5cc(OC)c(OC)c(OC)c5)C5C(=O)OCC45)OCO6)ccc3c2=O)cc1 (centres unmarked) [compound 6]
- IC50 [11]: 753 ± 173 nM

SMILES: Cc1cc(=O)oc2c(CN3CCN(C(=O)Nc4ccc(Br)c(F)c4)CC3)c(O)ccc12 [compound 10]
- IC50 (MGC-803 cells): 2130 ± 750 nM
- IC50 (NCI-H460 cells): 1860 ± 730 nM

SMILES: COc1cc([C@@H]2c3cc4c(cc3[C@H](OC(=O)COc3ccc5c(C)cc(=O)oc5c3)[C@H]3COC(=O)[C@H]23)OCO4)cc(OC)c1OC [12a]
- IC50 ([1]; Homo sapiens, HSC-2, 72 h): 0.281 ± 0.024 µM
- IC50 ([2]; Homo sapiens, SCC-9, 72 h): 0.279 ± 0.041 µM
- IC50 ([3]; Homo sapiens, A253, 72 h): 0.349 ± 0.063 µM
- IC50 ([4]; Homo sapiens, HK-2, 72 h): 0.814 ± 0.173 µM
